Measured values: patent US9884863B2, “STAT3 inhibitor” (Board of Regents, The University of Texas System, priority 2013, dated 2018)
Where two headings read alike, the source gives them in different places.

How the values were obtained:
[1] = system: MCF-7; test: MTS cell proliferation assay, MCF-7; assay type: cell-based, human
Method: Cancer cells (breast cancer cell lines MCF-7, MDA-MB-361, SKBR3 and MDA-MB-231, pancreatic cancer cell lines AsPC-1. […] Proliferation was measured by treating cells with the 3-(4,5-dimethylthiazol-2-yl)-5-(3-carboxymethoxyphenyl)-2-(4-sulfophenyl)-2H-tetrazolium) (MTS) in a CellTiter 96t AQueous Non-Radioactive Cell Proliferation Assay kit from Promega, Madison, Wis., USA). Absorbance of all wells was determined by measuring OD at 550 nm after 1 hr incubation at 37° C. on a 96-well iMark™ Microplate Absorbance Reader (BioRad, Hercules, Calif.). Each individual compound was tested in quadruplicate wells for each concentration, and the results were reported as mean absorption±s.e.
In Vitro Determination of Effects of Synthesized Compounds on Cancer Cell Proliferation. Cancer cells (breast cancer cell lines MCF-7 and MDA-MB-231, pancreatic cancer cell lines AsPC-1 and Panc-1) were […], 0.01, 0.1, 1, 5, 10, […] Proliferation was measured by treating cells with the 3-(4,5-dimethylthiazol-2-yl)-5-(3-carboxymethoxyphenyl)-2-(4-sulfophenyl)-2H-tetrazolium) (MTS) in a CellTiter 96t Aqueous Non-Radioactive Cell Proliferation Assay kit (Promega, Madison, Wis., USA). Absorbance of all wells was determined by measuring OD at 550 nm after 1 h incubation at 37° C. on a 96-well iMark™ Microplate Absorbance Reader (BioRad, Hercules, Calif.). Each individual compound was tested in quadruplicate wells for each concentration.

[2] = system: MDA-MB-231; test: MTS cell proliferation assay, MDA-MB-231; assay type: cell-based, human; settings: Homo sapiens
Method: Cancer cells (breast cancer cell lines MCF-7, MDA-MB-361, SKBR3 and MDA-MB-231, pancreatic cancer cell lines AsPC-1. BxPC3 and Panc-1) were seeded in 96-well plates at a density of 1000-2000 cells/well and treated with DMSO, 0.01, 0.1, 1, 5, 10, and […] of STAT3 individual inhibitors for 72 hrs. Proliferation was measured by treating cells with the 3-(4,5-dimethylthiazol-2-yl)-5-(3-carboxymethoxyphenyl)-2-(4-sulfophenyl)-2H-tetrazolium) (MTS) in a CellTiter 96t AQueous Non-Radioactive Cell Proliferation Assay kit from Promega, Madison, Wis., USA). Absorbance of all wells was determined by measuring OD at 550 nm after 1 hr incubation at 37° C. on a 96-well iMark™ Microplate Absorbance Reader (BioRad, Hercules, Calif.).
In Vitro Determination of Effects of Synthesized Compounds on Cancer Cell Proliferation. Cancer cells (breast cancer cell lines MCF-7 and MDA-MB-231, pancreatic cancer cell lines AsPC-1 and Panc-1) were seeded in 96-well plates at a density of 2×10^3 cells/well and treated with DMSO, 0.01, 0.1, 1, 5, 10, and 100 μM of individual STAT3 inhibitors for 72 h. Proliferation was measured by treating cells with the 3-(4,5-dimethylthiazol-2-yl)-5-(3-carboxymethoxyphenyl)-2-(4-sulfophenyl)-2H-tetrazolium) (MTS) in a CellTiter 96t Aqueous Non-Radioactive Cell Proliferation Assay kit (Promega, Madison, Wis., USA). Absorbance of all wells was determined by measuring OD at 550 nm after 1 h incubation at 37° C. on a 96-well iMark™ Microplate Absorbance Reader (BioRad, Hercules, Calif.). Each individual compound was tested in quadruplicate wells for each concentration. […]

[3] = Homo sapiens, MCF7, 72 h; read-out: IC50 MCF-7 (Table 1)
[4] = MDA-MB-231, ER-negative breast cancer, 72 hrs, >10 = no effect, read-out: IC50 MDA-MB-231 (Table 1)
[5] = Homo sapiens, MCF7, 72 h, read-out: IC50 MCF-7 (Table 1)
[6] = MDA-MB-231, 72 h, read-out: IC50 MDA-MB-231 (Table 1)

SMILES	IC50 [1, 3] [µM]	IC50 [2, 4] [µM]	further results
O=C(Nc1ccc2c(c1)S(=O)(=O)C=C2)c1cc(Cl)ccc1OCCBr [Compound 2]	–	–	IC50 ([1]; Homo sapiens, MCF7, read-out: IC50 MCF-7 (Table 2)): > 10 µM; IC50 ([2]; MDA-MB-231, read-out: IC50 MDA-MB-231 (Table 2)): > 10 µM
COC1CS(=O)(=O)c2cc(NC(=O)c3cc(-c4ccccc4)nc4ccccc34)ccc21 (stereo not drawn) [HJC-1-57, 2-Phenyl-quinoline-4-carboxylic acid (3-methoxy-1,1-dioxo-2,3-dihydro-1H-1λ^6-benzo[b]thiophen-6-yl)amide]	> 10	13.8	–
CC(=O)Nc1ccc2c(c1)S(=O)(=O)C=C2 [HJC-1-62, N-(1,1-Dioxo-1H-1λ^6-benzo[b]thiophen-6-yl)acetamide]	> 10	> 10	–
COC1CS(=O)(=O)c2cc(NC(C)=O)ccc21 (stereo not drawn) [HJC-1-63, N-(3-Methoxy-1,1-dioxo-2,3-dihydro-1H-1λ^6-benzo[b]thiophen-6-yl)acetamide]	> 10	> 10	–
COc1ccc(C(=O)Nc2ccc3c(c2)S(=O)(=O)C=C3)cc1 [HJC-2-15, N-(1,1-Dioxo-1H-1λ^6-benzo[b]thiophen-6-yl)-4-methoxybenzamide]	5.85	4.97	–
COc1ccc(C(=O)Nc2ccc3c(c2)S(=O)(=O)CC3OC)cc1 (stereo not drawn) [HJC-2-20, 4-Methoxy-N-(3-methoxy-1,1-dioxo-2,3-dihydro-1H-1λ^6-benzo[b]thiophen-6-yl)benzamide]	> 10	> 10	–
O=C(Nc1ccc([N+](=O)[O-])cc1Cl)c1cc(Cl)ccc1OCCN1CCNCC1 [HJC-2-52, 5-Chloro-N-(2-chloro-4-nitro-phenyl)-2-(2-piperazin-1-yl-ethoxy)benzamide]	12.4	8.66	–
CS(=O)(=O)N1CCN(CCOc2ccc(Cl)cc2C(=O)Nc2ccc([N+](=O)[O-])cc2Cl)CC1 [HJC-2-55, 5-Chloro-N-(2-chloro-4-nitrophenyl)-2-[2-(4-methanesulfonylpiperazin-1-yl)-ethoxy]benzamide]	> 10	> 10	–
NCCOCCOc1ccc(Cl)cc1C(=O)Nc1ccc([N+](=O)[O-])cc1Cl [HJC-2-58, 2-[2-(2-Amino-ethoxy)-ethoxy]-5-chloro-N-(2-chloro-4-nitro-phenyl)benzamide]	9.37	5.3	–
O=C(Nc1ccc2c(c1)S(=O)(=O)C=C2)c1cc(Cl)ccc1OCCN1CCOCC1 [HJC-3-9, 5-Chloro-N-(1,1-dioxo-1H-1λ^6-benzo[b]thiophen-6-yl)-2-(2-morpholin-4-yl-ethoxy) benzamide]	–	–	IC50 [1, 5]: 0.49 µM; inhibition on breast cancer cell proliferation (FIG. 1) ([1]; MCF-7, 48 hr, μM concentrations): significant inhibition; IC50 [2, 6]: 5.43 µM
O=C(Nc1ccc2c(c1)S(=O)(=O)C=C2)c1ccccn1 [HJC-3-20, Pyridine-2-carboxylic acid (1,1-dioxo-1H-1λ^6-benzo[b]thiophen-6-yl)amide]	6.7	> 10	–
CN(C)CCOc1ccc(Cl)cc1C(=O)Nc1ccc([N+](=O)[O-])cc1Cl [HJC-3-57, 5-Chloro-N-(2-chloro-4-nitro-phenyl)-2-(2-dimethylamino-ethoxy)benzamide]	–	–	IC50 [1, 5]: > 10 µM; IC50 [2, 6]: > 10 µM
O=C(Nc1ccc([N+](=O)[O-])cc1Cl)c1cc(Cl)ccc1OCC(O)CO (stereo not drawn) [HJC-3-60, 5-Chloro-N-(2-chloro-4-nitrophenyl)-2-(2,3-dihydroxypropoxy)benzamide]	> 10	> 10	–
N#CCC(=O)Nc1ccc2c(c1)S(=O)(=O)C=C2 [HJC-3-61, 2-Cyano-N-(1,1-dioxo-1H-1λ^6-benzo[b]thiophen-6-yl)acetamide]	–	–	IC50 [1, 5]: > 10 µM; IC50 [2, 6]: > 10 µM
O=C(Nc1ccc([N+](=O)[O-])cc1Cl)c1cc(Cl)ccc1OCCBr [HJC-3-64, 2-(2-Bromoethoxy)-5-chloro-N-(2-chloro-4-nitrophenyl)benzamide]	–	–	IC50 [1, 5]: > 10 µM; IC50 [2, 6]: > 10 µM
CN1CCN(CCOc2ccc(Cl)cc2C(=O)Nc2ccc([N+](=O)[O-])cc2Cl)CC1 [HJC-3-65, 5-Chloro-N-(2-chloro-4-nitrophenyl)-2-[2-(4-methylpiperazin-1-yl)-ethoxy]benzamide]	> 10	> 10	–
